Columns and labels:
Experiment in all cases: relative viability (nuclei count vs DMSO), 5 days (fraction); higher = more cells survive
AZD6482 + Lapatinib = compound: Cc1cc([C@@H](C)Nc2ccccc2C(=O)O)c2nc(N3CCOCC3)cc(=O)n2c1 [AZD6482] + CS(=O)(=O)CCNCc1ccc(-c2ccc3ncnc(Nc4ccc(OCc5cccc(F)c5)c(Cl)c4)c3c2)o1 [Lapatinib] (partner 2 µM)
Procedure, shortened: (§1)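 Lung cancer cell lines in 1536-well plates were dosed by pin tool the day after seeding, either with one drug alone or with a fixed anchor-drug dose plus five library-drug doses (not always all listed) in √10 steps. After 5 days, cells were fixed and their nuclei stained in one step (final 0.05% Triton X-100, 1% formaldehyde, 1 ug/ml Hoechst), then counted on 4× images. Relative viability is the nuclei count in treated wells divided by that in vehicle wells. Values are medians of duplicate plates.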

[1] = compound: COc1cc2nc(N3CCCN(C)CC3)nc(NC3CCN(Cc4ccccc4)CC3)c2cc1OC + C[C@]1(O)C[C@@H](c2nc(-c3ccc4ccc(-c5ccccc5)nc4c3)c3c(N)nccn32)C1 [Linsitinib] (partner 1 µM)
Procedure, shortened: as §1

[2] = compound: COc1cc2nc(N3CCCN(C)CC3)nc(NC3CCN(Cc4ccccc4)CC3)c2cc1OC + Nc1nc2[nH]cc(CCc3ccc(C(=O)N[C@@H](CCC(=O)O)C(=O)O)cc3)c2c(=O)[nH]1 [Pemetrexed] (partner 0.2 µM)
Procedure, shortened: as §1

[3] = compound: COc1cc2nc(N3CCCN(C)CC3)nc(NC3CCN(Cc4ccccc4)CC3)c2cc1OC + Cc1nc(Nc2ncc(C(=O)Nc3c(C)cccc3Cl)s2)cc(N2CCN(CCO)CC2)n1 [Dasatinib] (partner 0.075 µM)
Procedure, shortened: as §1

NCI-H2087
relative viability (AZD6482 + Lapatinib; first compound 0.08 µM): 1.22 | relative viability (AZD6482 + Lapatinib; first compound 0.253 µM): 1.12 | relative viability (AZD6482 + Lapatinib; first compound 0.8 µM): 1.43 | relative viability (AZD6482 + Lapatinib; first compound 2.53 µM): 0.864 | relative viability (AZD6482 + Lapatinib; first compound 8 µM): 0.98 | relative viability ([1]; first compound 0.2 µM): 0.908 | relative viability ([1]; first compound 0.6325 µM): 0.706 | relative viability ([1]; first compound 2 µM): 1.05 | relative viability ([1]; first compound 6.325 µM): 0.899 | relative viability ([2]; first compound 0.2 µM): 0.663 | relative viability ([2]; first compound 0.6325 µM): 0.622 | relative viability ([2]; first compound 2 µM): 0.686 | relative viability ([2]; first compound 6.325 µM): 0.656 | relative viability ([3]; first compound 0.2 µM): 0.7 | relative viability ([3]; first compound 0.6325 µM): 0.75 | relative viability ([3]; first compound 2 µM): 0.941 | relative viability ([3]; first compound 6.325 µM): 0.617

BEN
relative viability (AZD6482 + Lapatinib; first compound 0.08 µM): 0.732 | relative viability (AZD6482 + Lapatinib; first compound 0.253 µM): 0.722 | relative viability (AZD6482 + Lapatinib; first compound 0.8 µM): 0.671 | relative viability (AZD6482 + Lapatinib; first compound 2.53 µM): 0.553 | relative viability (AZD6482 + Lapatinib; first compound 8 µM): 0.687 | relative viability ([1]; first compound 0.2 µM): 0.914 | relative viability ([1]; first compound 0.6325 µM): 0.949 | relative viability ([1]; first compound 2 µM): 1.04 | relative viability ([1]; first compound 6.325 µM): 1.01 | relative viability ([2]; first compound 0.2 µM): 0.827 | relative viability ([2]; first compound 0.6325 µM): 0.943 | relative viability ([2]; first compound 2 µM): 1.01 | relative viability ([2]; first compound 6.325 µM): 0.716 | relative viability ([3]; first compound 0.2 µM): 0.384 | relative viability ([3]; first compound 0.6325 µM): 0.389 | relative viability ([3]; first compound 2 µM): 0.36 | relative viability ([3]; first compound 6.325 µM): 0.351

EKVX
relative viability (AZD6482 + Lapatinib; first compound 0.08 µM): 0.173 | relative viability (AZD6482 + Lapatinib; first compound 0.253 µM): 0.342 | relative viability (AZD6482 + Lapatinib; first compound 0.8 µM): 0.181 | relative viability (AZD6482 + Lapatinib; first compound 2.53 µM): 0.141 | relative viability (AZD6482 + Lapatinib; first compound 8 µM): 0.167 | relative viability ([1]; first compound 0.2 µM): 0.986 | relative viability ([1]; first compound 0.6325 µM): 0.922 | relative viability ([1]; first compound 2 µM): 1.07 | relative viability ([1]; first compound 6.325 µM): 0.891 | relative viability ([2]; first compound 0.2 µM): 0.422 | relative viability ([2]; first compound 0.6325 µM): 0.404 | relative viability ([2]; first compound 2 µM): 0.404 | relative viability ([2]; first compound 6.325 µM): 0.41 | relative viability ([3]; first compound 0.2 µM): 0.571 | relative viability ([3]; first compound 0.6325 µM): 0.52 | relative viability ([3]; first compound 2 µM): 0.474 | relative viability ([3]; first compound 6.325 µM): 0.526

LXF-289
relative viability (AZD6482 + Lapatinib; first compound 0.08 µM): 0.924 | relative viability (AZD6482 + Lapatinib; first compound 0.253 µM): 0.913 | relative viability (AZD6482 + Lapatinib; first compound 0.8 µM): 0.892 | relative viability (AZD6482 + Lapatinib; first compound 2.53 µM): 0.821 | relative viability (AZD6482 + Lapatinib; first compound 8 µM): 0.937 | relative viability ([1]; first compound 0.2 µM): 0.956 | relative viability ([1]; first compound 0.6325 µM): 0.954 | relative viability ([1]; first compound 2 µM): 0.98 | relative viability ([1]; first compound 6.325 µM): 0.923 | relative viability ([2]; first compound 0.2 µM): 0.924 | relative viability ([2]; first compound 0.6325 µM): 0.879 | relative viability ([2]; first compound 2 µM): 0.999 | relative viability ([2]; first compound 6.325 µM): 0.828 | relative viability ([3]; first compound 0.2 µM): 0.263 | relative viability ([3]; first compound 0.6325 µM): 0.212 | relative viability ([3]; first compound 2 µM): 0.252 | relative viability ([3]; first compound 6.325 µM): 0.213

NCI-H650
relative viability (AZD6482 + Lapatinib; first compound 0.08 µM): 0.999 | relative viability (AZD6482 + Lapatinib; first compound 0.8 µM): 0.948 | relative viability (AZD6482 + Lapatinib; first compound 2.53 µM): 0.454 | relative viability (AZD6482 + Lapatinib; first compound 8 µM): 0.534 | relative viability ([1]; first compound 0.2 µM): 0.866 | relative viability ([1]; first compound 0.6325 µM): 0.77 | relative viability ([1]; first compound 2 µM): 0.943 | relative viability ([1]; first compound 6.325 µM): 0.534 | relative viability ([2]; first compound 0.2 µM): 0.935 | relative viability ([2]; first compound 0.6325 µM): 0.877 | relative viability ([2]; first compound 2 µM): 0.924 | relative viability ([2]; first compound 6.325 µM): 0.92 | relative viability ([3]; first compound 0.2 µM): 0.48 | relative viability ([3]; first compound 0.6325 µM): 0.472 | relative viability ([3]; first compound 2 µM): 0.441 | relative viability ([3]; first compound 6.325 µM): 0.38

NCI-H2085
relative viability (AZD6482 + Lapatinib; first compound 0.08 µM): 0.42 | relative viability (AZD6482 + Lapatinib; first compound 0.253 µM): 0.407 | relative viability (AZD6482 + Lapatinib; first compound 0.8 µM): 0.457 | relative viability (AZD6482 + Lapatinib; first compound 2.53 µM): 0.366 | relative viability (AZD6482 + Lapatinib; first compound 8 µM): 0.372 | relative viability ([1]; first compound 0.2 µM): 0.9 | relative viability ([1]; first compound 0.6325 µM): 0.917 | relative viability ([1]; first compound 2 µM): 0.956 | relative viability ([1]; first compound 6.325 µM): 0.84 | relative viability ([2]; first compound 0.2 µM): 0.827 | relative viability ([2]; first compound 0.6325 µM): 1.02 | relative viability ([2]; first compound 2 µM): 0.943 | relative viability ([2]; first compound 6.325 µM): 0.87 | relative viability ([3]; first compound 0.2 µM): 0.217 | relative viability ([3]; first compound 0.6325 µM): 0.306 | relative viability ([3]; first compound 2 µM): 0.262 | relative viability ([3]; first compound 6.325 µM): 0.206

NCI-H1793
relative viability (AZD6482 + Lapatinib; first compound 0.08 µM): 0.559 | relative viability (AZD6482 + Lapatinib; first compound 0.253 µM): 0.368 | relative viability (AZD6482 + Lapatinib; first compound 0.8 µM): 0.565 | relative viability (AZD6482 + Lapatinib; first compound 8 µM): 0.321 | relative viability ([1]; first compound 0.2 µM): 0.912 | relative viability ([1]; first compound 0.6325 µM): 1.02 | relative viability ([1]; first compound 2 µM): 1.21 | relative viability ([1]; first compound 6.325 µM): 0.959 | relative viability ([2]; first compound 0.2 µM): 0.919 | relative viability ([2]; first compound 0.6325 µM): 1.19 | relative viability ([2]; first compound 2 µM): 0.945 | relative viability ([2]; first compound 6.325 µM): 0.797 | relative viability ([3]; first compound 0.2 µM): 0.378 | relative viability ([3]; first compound 0.6325 µM): 0.412 | relative viability ([3]; first compound 2 µM): 0.375 | relative viability ([3]; first compound 6.325 µM): 0.375

LC-2-ad
relative viability (AZD6482 + Lapatinib; first compound 0.08 µM): 1.06 | relative viability (AZD6482 + Lapatinib; first compound 0.253 µM): 0.553 | relative viability (AZD6482 + Lapatinib; first compound 0.8 µM): 1.1 | relative viability (AZD6482 + Lapatinib; first compound 2.53 µM): 0.638 | relative viability (AZD6482 + Lapatinib; first compound 8 µM): 0.918 | relative viability ([1]; first compound 0.2 µM): 0.889 | relative viability ([1]; first compound 0.6325 µM): 0.818 | relative viability ([1]; first compound 2 µM): 0.891 | relative viability ([1]; first compound 6.325 µM): 0.833 | relative viability ([2]; first compound 0.2 µM): 0.301 | relative viability ([2]; first compound 0.6325 µM): 0.27 | relative viability ([2]; first compound 2 µM): 0.268 | relative viability ([2]; first compound 6.325 µM): 0.264 | relative viability ([3]; first compound 0.2 µM): 0.493 | relative viability ([3]; first compound 0.6325 µM): 0.618 | relative viability ([3]; first compound 2 µM): 0.804 | relative viability ([3]; first compound 6.325 µM): 0.65

COR-L 105
relative viability (AZD6482 + Lapatinib; first compound 0.08 µM): 0.382 | relative viability (AZD6482 + Lapatinib; first compound 0.253 µM): 0.326 | relative viability (AZD6482 + Lapatinib; first compound 0.8 µM): 0.351 | relative viability (AZD6482 + Lapatinib; first compound 2.53 µM): 0.364 | relative viability (AZD6482 + Lapatinib; first compound 8 µM): 0.355 | relative viability ([1]; first compound 0.2 µM): 1.09 | relative viability ([1]; first compound 0.6325 µM): 0.888 | relative viability ([1]; first compound 2 µM): 0.833 | relative viability ([1]; first compound 6.325 µM): 0.628 | relative viability ([2]; first compound 0.2 µM): 1.08 | relative viability ([2]; first compound 0.6325 µM): 1.22 | relative viability ([2]; first compound 2 µM): 1.15 | relative viability ([2]; first compound 6.325 µM): 0.798 | relative viability ([3]; first compound 0.2 µM): 0.338 | relative viability ([3]; first compound 0.6325 µM): 0.472 | relative viability ([3]; first compound 2 µM): 0.328 | relative viability ([3]; first compound 6.325 µM): 0.25

From the supplement of paper PMC10307832
